The values below come from patent US10154974B1, “Use of abscisic acid for the prevention and treatment of malaria” (The Regents of the University of California, priority 2015, dated 2018).

For one data set, the system named is P. yoelii 17XNL. Description: P. yoelii 17XNL infection of CD1 mice given ABA in drinking water (parasitemia, gametocytemia). It is filed as in vivo. As to the method:
6-8 week old female CD1 mice (Jackson) were housed four to a cage and provided with unsupplemented water or water supplemented with 2.56 mM (±)-abscisic acid (CAS Registry Number 14375-45-2) obtained from Sigma-Aldrich (Catalog No. A1049). Water and supplemented water were changed daily. […] Mouse weight, water consumption per cage, and parasitemia were monitored daily. Parasitemia was determined from thin blood films stained with Giemsa. Parasitemia was measured as the percentage of infected RBCs divided by total RBCs, while gametocytemia was measured as the proportion of gametocyte-containing RBCs of total infected RBCs. Four mice were used per group in replicated studies. Daily parasitemias and gametocytemias were analyzed by unpaired t-test.

The nature of data set [1]: Daily monitoring of water consumption, body weight and condition of mice. It is filed as in vivo. The following applies: infected CD1 mice. On the procedure: 6-8 week old female CD1 mice (Jackson) were housed four to a cage and provided with unsupplemented water or water supplemented with 2.56 mM (±)-abscisic acid (CAS Registry Number 14375-45-2) obtained from Sigma-Aldrich (Catalog No. A1049). Water and supplemented water were changed daily. On day 3 of supplementation, mice were injected intraperitoneally with 5×10^6 P. yoelii 17XNL-infected RBCs. Mouse weight, water consumption per cage, and parasitemia were monitored daily. Parasitemia was determined from thin blood films stained with Giemsa. Parasitemia was measured as the percentage of infected RBCs divided by total RBCs, while gametocytemia was measured as the proportion of gametocyte-containing RBCs of total infected RBCs. Four mice were used per group in replicated studies. Daily parasitemias and gametocytemias were analyzed by unpaired t-test.

The next data set relates to spleen. Description: Spleen histology scoring. The class given is in vivo. The following applies: P. yoelii-infected mice. As to the method:
Mice were euthanized on day 7 post-infection. Blood was collected by heart puncture, spun at 8,000 rpm for 8 minutes and the plasma collected for ABA quantification. Livers and spleens were collected, retained in 10% formalin for 24 hours and then stored in 70% ethanol before sectioning and staining with hematoxylin and eosin. Liver sections were blindly scored on a scale from 0 to 3 for pigment levels, Kupffer cell density, portal tract inflammation, hemozoin deposition, extramedullary hematopoiesis, sinusoidal leukocyte density, sinusoidal adherence of leukocytes, and presence of microabscesses. Spleen sections were blindly scored on a scale from 0 to 3 for hyperplasia, extramedullary hematopoiesis, pigment, and levels of histiocytes and neutrophils. Pathology scores of control and treated mice were analyzed by unpaired t-test.

For data set [2], the system named is nitric oxide synthase (NOS). The experiment in a line: NOS transcript levels in mouse liver and spleen. It is filed as in vivo, mice. The following applies: day 7 of infection. On the procedure: For mosquito immune gene expression, 20 midguts were dissected from mosquitoes in each treatment group at 1, 2, 4, 6, 8 and 24 hours post-feeding. Midguts were sonicated and stored in Trizol at −20° C. for up to a week before RNA was extracted according to manufacturer's instructions. cDNA synthesis was carried out using QantiTect Reverse Transcription Kit (Qiagen) and 200 ng of cDNA used per reaction for qRT-PCR with Sybr Green (Applied Biosystems). Fold changes in expression levels were calculated using the comparative threshold cycle method. Data were normalized to the housekeeping gene ribosomal protein S7 and to the control treatment. Primers and cycling conditions for AsNOS, defensin, LRIM, TEP1, and APL1 were as previously described (Hauck E S, et al. Microbes Infect. 2013; 15:775-87). For gene expression analysis of mouse liver and spleen, organs were flash frozen after necropsy and stored at −80° C. before RNA was extracted in Trizol and cDNA synthesized. Real-time PCR was performed using TaqMan probe-based expression assays for mouse NOS2, PPARγ (Mm00440940), and β-actin (Applied Biosystems) with volumes and cycling conditions as previously described (Chau et al., Infect Immun, 2013, 81:3515-26). Samples were analyzed in triplicate with 250 ng of cDNA per reaction to confirm uniformity of amplification. […] All expression data were analyzed by one sample t-test.

The next data set concerns P. falciparum NF54. The experiment in a line: P. falciparum asexual growth assay. It is filed as cell-based. The following applies: 10 nM or 100 nM ABA, 48 and 96 hours, relative to untreated control. On the procedure: P. falciparum NF54 cultures were synchronized and aliquots plated in complete RPMI 1640 with HEPES, hypoxanthine, and 10% heat inactivated human serum. Parasites were treated with 10 nM ABA, 100 nM ABA, or a diluent control and incubated at 37° C. for 48 or 96 hours before culture media was replaced with 10% formalin in RPMI 1640. Red blood cells were stained with 10 ug/mL propidium iodide (Sigma-Aldrich) in PBS at room temperature for 1 hour and infected cells counted with FACS Calibur flow cytometer (BD Biosciences). Four replicates were carried out, each using a separate parasite culture passage. Relative changes in growth were normalized to controls set at 1 and analyzed by one-sample t-test.

The next data set relates to gsk3. The experiment in a line: gsk3 phosphorylation in mosquito midgut. The following applies: midguts of ABA-treated, P. falciparum-fed mosquitoes. The class given is in vivo, Anopheles stephensi. As to the method: Fold change is shown in levels of phosphorylated AMPK (FIG. 13A), and gsk3 (FIG. 13B) in the midguts of ABA-treated, P. falciparum-fed mosquitoes compared to controls. Each dot represents one replicate of 15 pooled midguts. Data were analyzed by one sample t-test. * p<0.05.

For the next data set, the system named is ILP3 and ILP4. The experiment in a line: Insulin-like peptide mRNA levels in mosquito midgut. It is filed as in vivo, Anopheles stephensi. The following applies: P. falciparum-fed mosquitoes. On the procedure:
FIG. 14A-B illustrate that ABA reduces insulin-like peptide expression in the midgut. Specifically, mRNA levels are shown of ILP3 (FIG. 14A) and ILP4 (FIG. 14B) in ABA-treated, P. falciparum-fed mosquito midguts. Data are shown as fold change compared to control-treated mosquitoes. Each dot represents one replicate of 10 pooled midguts. Data were analyzed by one sample t-test. * p<0.05.

Data set [3] concerns parasite-specific IgG and IgG1. The experiment in a line: Western blot of infected RBC protein probed with mouse plasma. The class given is in vivo. The following applies: P. yoelii-infected mice. The source says:
FIG. 26A-C illustrate that ABA-supplementation increased levels of parasite-specific IgG and IgG1 in mouse plasma. Shown are western blots of protein from uninfected and P. yoelii-infected RBCs probed with plasma from uninfected, P. yoelii-infected, ABA-supplemented P. yoelii-infected mice followed by IgG1 (FIG. 26A) and total IgG (FIG. 26B) secondary antibodies. Also shown is a densitometry analysis (FIG. 26C) of IgG1- and total IgG-bound protein from infected RBCs. Data are shown as fold change between control P. yoelii and ABA-supplemented P. yoelii plasma.
On the technique in general: Immunoblotting shows a protein as a band on a membrane.

As for `CC1=CC(=O)CC(C)(C)[C@@]1(O)/C=C/C(C)=C\C(=O)O` (racemic) [ABA, (2Z,4E)-5-[(1S)-1-hydroxy-2,6,6-trimethyl-4-oxocyclohex-2-en-1-yl]-3-methylpenta-2,4-dienoic acid], the parasitemia entry is on record as “reduced” in the data set with P. yoelii 17XNL (CD1 mice, day 4 to day 7 post-infection, relative to controls (Example 1)) and “reduced” in the data set on P. yoelii 17XNL (starting on day 3 post-infection, compared to controls (Example 2)). Further, the gametocytemia entry in the data set with P. yoelii 17XNL (CD1 mice, day 6 of infection (Example 1)) was “reduced”; in the data set with P. yoelii 17XNL (day 5 post-infection (Example 2)), “reduced”. Further, in data set [1] (day 7, compared to controls), the lethargy at necropsy entry is listed as “less lethargic”. Besides, the daily weight change entry in data set [1] (over the course of infection) is “not different”. Moreover, in the data set with spleen, the “histiocyte density, pigment deposition, extramedullary hematopoiesis in the spleen” value is “not altered”. Further, in the data set with spleen, the “lymphoid hyperplasia of the spleen” value is listed as “reduced”. The “transcript levels of nitric oxide synthase (NOS)” value in data set [2] is recorded as “decreased”. The asexual growth result in the data set with P. falciparum NF54 was “no effect”. The “phosphorylation of gsk3” value in the data set with gsk3 is “alters phosphorylation”. Further, in the data set with ILP3 and ILP4, the insulin-like peptide expression entry is given as “reduces”. Besides, the “levels of parasite-specific IgG and IgG1 in mouse plasma” value in data set [3] is on record as “increased”.
